Measured values as given in paper PMC5931107, “Clinical pharmacodynamic/exposure characterisation of the multikinase inhibitor ilorasertib (ABT-348) in a phase 1 dose-escalation trial” (British Journal of Cancer, 2018).
Read-outs that look alike come from different tables or passages of the source. Marks after values point to notes of the source that are not given here.

Experiments:
[1] = test system: CSF-1R; set-up: method as in PMID 22935731; conditions: 1 mM ATP; read-out: Biochemical IC50 (95% confidence limits); cited from earlier work
[2] = test system: Aurora C; set-up: method as in PMID 22935731; conditions: Aurora C autophosphorylation, nocodazole-arrested HeLa cells; read-out: Cellular PD marker IC50 (95% confidence limits); cited from earlier work
[3] = test system: advanced solid tumours; assay: Tumour response, RECIST version 1.1; assay type: in vivo, human; conditions: Arm II
Description: Disease effect endpoints were determined using Response Evaluation Criteria In Solid Tumors version 1.1. Tumour burden assessment was conducted within 21 days prior to cycle 1 day 1, every 8 weeks thereafter, and at the final visit if not performed in the past 4 weeks.

[4] = test system: FLT-3; set-up: method as in PMID 22935731; conditions: FLT-3 constitutively phosphorylated in SEM cells, 60 min exposure; read-out: Cellular PD marker IC50 (95% confidence limits); cited from earlier work
[5] = Plasma pharmacokinetics, Arm III (i.v. infusion), phase 1 trial; assay type: in vivo, human; conditions: for half-life: read-out: t1/2 (harmonic mean) (converted)
Description: Pharmacokinetics of ilorasertib were evaluated in the dose-escalation cohort on blood samples that were collected on cycle 1 days 1 and 15. Parameters determined: Cmax, time to Cmax (Tmax), terminal phase elimination half-life (t1/2), clearance, apparent oral clearance (CL/F), and area under the plasma concentration-time curve from time 0 to time of last measurable concentration (AUCt) and from time 0 to infinity (AUC∞). For Arm I, blood samples were collected prior to dosing and at 0.5, 1, 2, 3, 4, 6, 8, 10 or 12, and 24 h after dosing on cycle 1 days 1 and 15; of note, for institutions not able to collect the 10- or 12-h post-dose sample, the 24-h sample was replaced with 22-h and 28-h post-dose samples. In Arm II, for the first dose, blood samples were collected pre-dose and at 1, 2, 3, and 4 h post-dose on cycle 1 days 1 and 15; for the second dose, samples were collected pre-dose and at 1, 2, 3, 4, 18, and 24 h after second dose on cycle 1 days 1 and 15. In Arm III, blood samples were collected prior to infusion, at 1 h 55 min (just before end of infusion), and at 0.5, 1, 2, 4, 6, 8, 10, and 24 h after end of infusion on cycle 1 days 1 and 15; here also, for institutions not able to collect the 8-h or 10-h after-end-of-infusion samples, the 24-h sample was replaced with 22-h and 28-h post-dose samples. The liquid chromatography (LC)-mass spectrometry (MS)/MS method was developed and validated in the Bioanalysis Department of AbbVie. Fifty microliter of human plasma (K2EDTA as anticoagulant) was fortified with 300 μL of deuterium-stable labelled internal standard and mixed well. A HybridSPE precipitation plate (50 mg/96 wells, Supelco Analytical, Munich, Germany) was used to directly load and elute (under slight vacuum) the fortified samples into a clean collection plate. Samples were dried before reconstitution with 100 μL of 20/80 (v/v) acetonitrile/water, and injected for LC-MS/MS analysis. A Halo C8 (Wilmington, DE, USA; 2.7 μm, 2.1 × 30 mm) was used on an Agilent 1290 Infinity UPLC pump (Agilent Technologies, Santa Clara, CA) to carry out the separation. An isocratic condition with 25/75/0.1 (v/v/v) acetonitrile/water/98% formic acid was used as the mobile phase. The flow rate was set to be 0.6 mL/min. An MPS 3 C ([…] Ruhr, Germany) autosampler was used to introduce samples onto the UPLC system. An API 4000 mass spectrometer (Applied Biosystems, Foster City, CA) was used in the multiple reactions monitoring mode for the detection and quantitation of analyte. Descriptive statistics were used for demographic variables. The numbers and percentages of patients with treatment-emergent AEs (TEAEs) were tabulated using the Medical Dictionary for Regulatory Activities version 16.0 system organ class and preferred term, and further classified according to CTCAE version 4.0 criteria. The safety data set included all patients who received one or more doses of ilorasertib. The pharmacokinetic data set included all patients who received one or more doses of ilorasertib and had one or more pharmacokinetic samples. Values for pharmacokinetic parameters were determined using non-compartmental methods, with data analysed separately for each arm. A repeated measures analysis was performed for Tmax and dose-normalised Cmax, AUCt, and AUC∞. The model included random effects for patient and fixed effects for dose level, day, and the interaction of dose level and day. To assess effects of exposure on pharmacodynamic biomarkers, Cmax was employed as the directly measured marker of exposure for the rapid changes in DBP and PlGF pre-steady-state, while AUC∞ reflected exposure variability at the time of post-multiple-dose skin biopsy. Descriptive statistics were used to summarise ECOG performance status. The efficacy data set included all patients who received one or more doses of ilorasertib.

[6] = 40 mg BID, basal cell carcinoma patient
[7] = 230 mg BID, adenocarcinoma of unknown primary site
[8] = Arm III i.v. infusion 8 mg, day 1, N=4
[9] = Arm III i.v. infusion 8 mg, day 15, N=4
[10] = Arm III i.v. infusion 16 mg, day 1, N=1
[11] = Arm III i.v. infusion 16 mg, day 15, N=1
[12] = Arm III i.v. infusion 32 mg, day 1, N=2, mean (individual)
[13] = Arm III i.v. infusion 32 mg, day 15, N=2, mean (individual)
[14] = Arm III i.v. infusion all doses, day 1, N=7
[15] = Arm III i.v. infusion all doses, day 15, N=7
[16] = human, plasma, iv, 8 mg, Arm III i.v. infusion 8 mg, day 1, N=3
[17] = human, plasma, iv, 8 mg, Arm III i.v. infusion 8 mg, day 15, N=3
[18] = human, plasma, iv, 16 mg, Arm III i.v. infusion 16 mg, day 1, N=1
[19] = human, plasma, iv, 16 mg, Arm III i.v. infusion 16 mg, day 15, N=1
[20] = human, plasma, iv, 32 mg, Arm III i.v. infusion 32 mg, day 1, N=2, mean (individual)
[21] = human, plasma, iv, 32 mg, Arm III i.v. infusion 32 mg, day 15, N=2, mean (individual)
[22] = human, plasma, iv, Arm III i.v. infusion all doses, day 1, N=6
[23] = human, plasma, iv, Arm III i.v. infusion all doses, day 15, N=6

Question: What does the source list for `Nc1ncc(-c2cnn(CCO)c2)c2scc(-c3ccc(NC(=O)Nc4cccc(F)c4)cc3)c12` [ilorasertib, Ilorasertib]?
Answer: IC50 [1]: […]; IC50 [2]: […]; Best response [3, 6]: partial response; Duration of response [3, 6]: […]; Best response [3, 7]: partial response; Duration of response [3, 7]: […]; IC50 [4]: […]; AUC∞/dose ([5]; Arm III i.v. infusion 8 mg, day 1, N=3): 273 ± 38.5^b ng•h/mL/mg; AUCt/dose [5, 8]: 185 ± 42.9 ng·h/mL/mg; Cmax/dose [5, 8]: 29.3 ± 10.3 ng/mL/mg; AUC∞/dose ([5]; Arm III i.v. infusion 8 mg, day 15, N=3): 360 ± 249^b ng•h/mL/mg; AUCt/dose [5, 9]: 219 ± 71.5 ng·h/mL/mg; Cmax/dose [5, 9]: 30.8 ± 13.3 ng/mL/mg; AUCt/dose [5, 10]: 119 ng·h/mL/mg; AUC∞/dose [5, 10]: 152 ng·h/mL/mg; Cmax [5, 10]: 0.37 µg/mL; Cmax/dose [5, 10]: 22.9 ng/mL/mg; AUCt/dose [5, 11]: 190 ng·h/mL/mg; AUC∞/dose [5, 11]: 215 ng·h/mL/mg; Cmax [5, 11]: 0.74 µg/mL; Cmax/dose [5, 11]: 46 ng/mL/mg; AUCt/dose [5, 12]: 265 (390, 139) ng•h/mL/mg; AUC∞/dose [5, 12]: 287 (424, 150) ng•h/mL/mg; Cmax [5, 12]: 1.31 (1.69, 0.94) μg/mL; Cmax/dose [5, 12]: 41.0 (52.8, 29.2) ng/mL/mg; AUCt/dose [5, 13]: 228 (304, 153) ng•h/mL/mg; AUC∞/dose [5, 13]: 263 (358, 168) ng•h/mL/mg; Cmax [5, 13]: 1.37 (1.85, 0.88) μg/mL; Cmax/dose [5, 13]: 42.7 (57.8, 27.6) ng/mL/mg; AUC∞/dose ([5]; Arm III i.v. infusion all doses, day 1, N=6): 258 ± 104^d ng•h/mL/mg; AUCt/dose [5, 14]: 198 ± 93.7 ng·h/mL/mg; Cmax/dose [5, 14]: 31.8 ± 12.0 ng/mL/mg; AUC∞/dose ([5]; Arm III i.v. infusion all doses, day 15, N=6): 303 ± 180^d ng•h/mL/mg; AUCt/dose [5, 15]: 217 ± 68.0 ng·h/mL/mg; Cmax/dose [5, 15]: 36.4 ± 14.7 ng/mL/mg; AUC(0-inf) [5, 16]: 2190 ± 310 ng·h/mL; clearance [5, 16]: 61.8 mL/min; half-life [5, 16]: 8.5 ± 4.1 h; AUC(0-t) ([5]; human, plasma, iv, 8 mg, Arm III i.v. infusion 8 mg, day 1, N=4): 1480 ± 340 ng·h/mL; Cmax ([5]; human, plasma, iv, 8 mg, Arm III i.v. infusion 8 mg, day 1, N=4, read-out: Cmax): 0.23 ± 0.08 µg/mL; AUC(0-inf) [5, 17]: 2880 ± 1990 ng·h/mL; clearance [5, 17]: 60.2 mL/min; AUC(0-t) ([5]; human, plasma, iv, 8 mg, Arm III i.v. infusion 8 mg, day 15, N=4): 1750 ± 570 ng·h/mL; Cmax ([5]; human, plasma, iv, 8 mg, Arm III i.v. infusion 8 mg, day 15, N=4, read-out: Cmax): 0.25 ± 0.11 µg/mL; AUC(0-inf) [5, 18]: 2440 ng·h/mL; AUC(0-t) [5, 18]: 1910 ng·h/mL; clearance [5, 18]: 109 mL/min; AUC(0-inf) [5, 19]: 3450 ng·h/mL; AUC(0-t) [5, 19]: 3040 ng·h/mL; clearance [5, 19]: 77.3 mL/min; half-life [5, 19]: 9.6 h; AUC(0-inf) [5, 20]: 9180 ng·h/mL; AUC(0-t) [5, 20]: 8460 ng·h/mL; clearance [5, 20]: 75.2 mL/min; half-life [5, 20]: 9.3 h; AUC(0-inf) [5, 21]: 8410 ng·h/mL; AUC(0-t) [5, 21]: 7300 ng·h/mL; clearance [5, 21]: 73 mL/min; clearance [5, 22]: 74.2 mL/min; half-life [5, 22]: 9.1 ± 3.3 h; clearance [5, 23]: 67.3 mL/min; half-life [5, 23]: 12.1 ± 4.4 h; Tmax ([5]; human, plasma, iv, Arm III i.v. infusion 8 mg, day 1, N=4): 2 ± 0.2 h; Tmax ([5]; human, plasma, iv, Arm III i.v. infusion all doses, day 1, N=7): 2 ± 0.2 h
